Here are results for 15 compounds from patent US20140107100A1, “Benzoxazepines as Inhibitors of PI3K/mTOR and Methods of Their Use and Manufacture” (EXELIXIS, INC., priority 2010, published 2014).

One experiment addresses PI3Kα (Homo sapiens, UniProt P42336). In words: PI3K biochemical assay, ATP consumption by luciferase-luciferin chemiluminescence. The conditions noted are these: 3 nM enzyme, 10 μM PIP2, approximately 2 h; read-out: IC50 in the PI3K-alpha assay. Here is the method:
P13Kα activity was measured as the percent of ATP consumed following the kinase reaction using luciferase-luciferin-coupled chemiluminescence. Reactions were conducted in 384-well white, medium binding microliter plates (Greiner). Kinase reactions were initiated by combining test compounds. ATP, substrate (PIP2), and kinase in a 20 μL volume in a buffer solution. The standard P13Kalpha assay buffer was composed 50 mM Tris, pH 7.5, 1 mM EGTA, 10 mM MgCl2, 1 mM DTT and 0.03% CHAPS. The standard assay concentrations for enzyme, ATP, and substrate were 3 nM, IpM, and 10 μM, respectively. The reaction mixture was incubated at ambient temperature for approximately 2 h. Following the kinase reaction, a 10 μL aliquot of luciferase-luciferin mix (Promega Kinase-Glo) was added and the chemiluminescence signal measured using a Victor2 or EnVision (Perkin Elmer). Total ATP consumption was limited to 40-60% and IC50 values of control compounds correlate well with literature references. Substituting P13Kα with P13Kβ, […], or PI3Kδ, the inhibitory activity of the compounds for the other isoforms of P13-K were measured. For the P13Kβ and P13Kβ assays, enzyme concentrations were 10 nM and 4 nM. respectively. For the P13γ assay, enzyme concentration was 40 nM, the incubation time was 1 h, and the concentration of MgCl2 in the assay buffer was 5 mM.

The target of a further experiment is mTOR/GbL/Raptor (mTORC1) (Homo sapiens, UniProt P42345). In words: mTOR/GbL/Raptor (mTORC1) ELISA assay, phosphorylation of 4E-BP1. In kind it is biochemical. To be noted: 0.2 nM mTORC1, 40 uM ATP, 50 nM NHis-tagged 4E-BP1, 120 minutes; read-out: IC50 in this assay (mTORC1 ELISA). In a few lines:
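Phospho-4E-BP1 was quantified by luminescent ELISA (anti-phospho-4E-BP1 IgG, HRP-tagged secondary) after capture of the His-tagged substrate on Ni-chelate plates.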
For orientation: ELISA stands for enzyme-linked immunosorbent assay.

Broadly, the IC50 is the concentration that gives 50% inhibition.

SMILES strings stand for the structures. Bounds are passed on as bounds.

PI3Kα, sequence (P42336 whole entry): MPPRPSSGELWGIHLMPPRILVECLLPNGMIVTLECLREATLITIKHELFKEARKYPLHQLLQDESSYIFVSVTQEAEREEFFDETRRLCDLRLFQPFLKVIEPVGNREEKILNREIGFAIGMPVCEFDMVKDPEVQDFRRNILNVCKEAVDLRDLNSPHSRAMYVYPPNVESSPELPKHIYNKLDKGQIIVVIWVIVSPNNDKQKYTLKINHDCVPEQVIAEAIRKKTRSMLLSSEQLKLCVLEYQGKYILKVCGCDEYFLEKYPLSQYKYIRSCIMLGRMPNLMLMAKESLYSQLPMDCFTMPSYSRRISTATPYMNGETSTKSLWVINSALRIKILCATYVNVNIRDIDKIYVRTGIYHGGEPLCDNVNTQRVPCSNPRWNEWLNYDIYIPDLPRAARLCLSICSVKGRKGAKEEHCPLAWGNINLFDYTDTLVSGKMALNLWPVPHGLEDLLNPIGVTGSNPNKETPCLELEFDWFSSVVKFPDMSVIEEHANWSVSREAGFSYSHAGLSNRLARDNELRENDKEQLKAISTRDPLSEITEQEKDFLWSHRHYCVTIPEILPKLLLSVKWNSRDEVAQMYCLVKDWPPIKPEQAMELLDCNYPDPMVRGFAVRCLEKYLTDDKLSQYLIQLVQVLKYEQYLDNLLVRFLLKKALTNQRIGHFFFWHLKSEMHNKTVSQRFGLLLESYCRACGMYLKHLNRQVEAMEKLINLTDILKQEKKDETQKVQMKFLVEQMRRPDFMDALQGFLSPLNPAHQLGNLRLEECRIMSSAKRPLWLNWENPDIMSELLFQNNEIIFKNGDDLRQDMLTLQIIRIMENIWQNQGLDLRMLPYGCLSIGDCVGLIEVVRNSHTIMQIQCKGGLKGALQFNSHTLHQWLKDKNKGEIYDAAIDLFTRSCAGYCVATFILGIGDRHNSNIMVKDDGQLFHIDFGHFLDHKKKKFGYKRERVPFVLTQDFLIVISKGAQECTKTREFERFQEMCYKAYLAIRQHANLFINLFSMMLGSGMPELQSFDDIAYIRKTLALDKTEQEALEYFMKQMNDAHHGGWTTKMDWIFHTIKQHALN
PI3Kα, sequence (P27986 whole entry partner): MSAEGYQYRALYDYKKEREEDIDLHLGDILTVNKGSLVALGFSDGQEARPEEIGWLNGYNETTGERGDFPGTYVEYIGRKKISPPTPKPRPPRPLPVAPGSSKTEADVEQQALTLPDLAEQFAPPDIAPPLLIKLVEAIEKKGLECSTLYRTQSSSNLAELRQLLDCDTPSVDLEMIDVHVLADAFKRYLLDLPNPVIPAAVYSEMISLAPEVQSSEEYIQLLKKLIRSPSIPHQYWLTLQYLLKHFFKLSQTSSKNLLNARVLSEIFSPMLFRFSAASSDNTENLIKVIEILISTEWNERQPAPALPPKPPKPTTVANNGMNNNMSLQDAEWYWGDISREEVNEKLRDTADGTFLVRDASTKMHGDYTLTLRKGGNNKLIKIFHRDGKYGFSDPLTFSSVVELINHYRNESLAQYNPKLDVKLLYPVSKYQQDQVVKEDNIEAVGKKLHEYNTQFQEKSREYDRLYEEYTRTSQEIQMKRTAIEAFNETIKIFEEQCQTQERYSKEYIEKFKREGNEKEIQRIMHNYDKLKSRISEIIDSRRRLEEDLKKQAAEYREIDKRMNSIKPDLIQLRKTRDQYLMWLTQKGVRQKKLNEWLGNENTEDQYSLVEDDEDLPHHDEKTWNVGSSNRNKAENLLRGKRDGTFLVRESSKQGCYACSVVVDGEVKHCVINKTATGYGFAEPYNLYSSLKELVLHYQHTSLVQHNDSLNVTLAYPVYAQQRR

Turning to `[2H]C1([2H])Oc2c(C)cc(-c3cnc4sc(N)nc4c3)cc2CN(c2nc(N)nc(C)c2C(C)C)C1([2H])[2H]` [Compound 122, 6-{4-[2-amino-6-methyl-5-(1-methylethyl)pyrimidin-4-yl]-2,3,4,5-tetrahydro-1,4-benzoxazepin-7-yl}[1,3]thiazolo[5,4-b]pyridin-2-amine-d_4_], the IC50 on PI3Kα and on mTOR/GbL/Raptor (mTORC1) was at most 100 nM throughout.

In the case of `COC(=O)c1ccc(-c2cc(C)c3c(c2)CN(c2nc(N)nc(C)c2C(C)C)CCO3)cc1OC` [Compound 68, methyl 4-{4-[2-amino-6-methyl-5-(1-methylethyl)pyrimidin-4-yl]-9-methyl-2,3,4,5-tetrahydro-1,4-benzoxazepin-7-yl}-2-(methyloxy)benzoate], the concentration for half-maximal inhibition (IC50) at PI3Kα was 500 to 2500 nM; at mTOR/GbL/Raptor (mTORC1) it was 100 to 500 nM.

As to `C=Cc1cnc(N)nc1N1CCOc2c(C)cc(-c3cnc4sc(N)nc4c3)cc2C1` [Compound 89, 6-[4-(2-amino-5-ethenylpyrimidin-4-yl)-9-methyl-2,3,4,5-tetrahydro-1,4-benzoxazepin-7-yl][1,3]thiazolo[5,4-b]pyridin-2-amine], the IC50 at PI3Kα and at mTOR/GbL/Raptor (mTORC1) was at most 100 nM throughout.

As to `CCc1cc(-c2cnc3sc(N)nc3c2)cc2c1OCCN(c1nc(N)nc(C)c1C(C)C)C2` [Compound 17, 6-{4-[2-amino-6-methyl-5-(1-methylethyl)pyrimidin-4-yl]-9-ethyl-2,3,4,5-tetrahydro-1,4-benzoxazepin-7-yl}[1,3]thiazolo[5,4-b]pyridin-2-amine], the IC50 at PI3Kα was 500 to 2500 nM; at mTOR/GbL/Raptor (mTORC1), at most 100 nM.

`CCNC(=O)c1sc(N2CCOc3c(C)cc(-c4cnc(Cl)c(NS(C)(=O)=O)c4)cc3C2)nc1C(C)C` [Compound 33, 2-[7-{6-chloro-5-[(methylsulfonyl)amino]pyridin-3-yl}-9-methyl-2,3-dihydro-1,4-benzoxazepin-4(5H)-yl]-N-ethyl-4-(1-methylethyl)-1,3-thiazole-5-carboxamide]: the values for the IC50 on PI3Kα and at mTOR/GbL/Raptor (mTORC1) were 500 to 2500 nM and 100 to 500 nM, respectively.

Consider `Cc1cc(-c2cnc(O)c(NS(C)(=O)=O)c2)cc2c1OCCN(c1nc(N)nc(C)c1C(C)C)C2` [Compound 19, N-(5-{4-[2-amino-6-methyl-5-(1-methylethyl)pyrimidin-4-yl]-9-methyl-2,3,4,5-tetrahydro-1,4-benzoxazepin-7-yl}-2-hydroxypyridin-3-yl)methanesulfonamide], for which the values for the IC50 on PI3Kα and on mTOR/GbL/Raptor (mTORC1) were 500 to 2500 nM and at most 100 nM, respectively.

For the compound `Cc1cc(-c2cnn(C)c2C)cc2c1OCCN(c1nc(N)nc(C)c1C(C)C)C2` [Compound 110, 4-[7-(1,5-dimethyl-1H-pyrazol-4-yl)-9-methyl-2,3-dihydro-1,4-benzoxazepin-4(5H)-yl]-6-methyl-5-(1-methylethyl)pyrimidin-2-amine], the IC50 at PI3Kα lay within 500 to 2500 nM; at mTOR/GbL/Raptor (mTORC1), 100 to 500 nM.

For the compound `Cc1cc(-c2cn(C)nc2C)cc2c1OCCN(c1nc(N)nc(C)c1C(C)C)C2` [Compound 109, 4-[7-(1,3-dimethyl-1H-pyrazol-4-yl)-9-methyl-2,3-dihydro-1,4-benzoxazepin-4(5H)-yl]-6-methyl-5-(1-methylethyl)pyrimidin-2-amine], the IC50 lay within 500 to 2500 nM on PI3Kα and 100 to 500 nM at mTOR/GbL/Raptor (mTORC1).

Consider `Cc1cc(-c2cccc(N)c2)cc2c1OCCN(c1nc(N)nc(C)c1C(C)C)C2` [Compound 69, 4-[7-(3-aminophenyl)-9-methyl-2,3-dihydro-1,4-benzoxazepin-4(5H)-yl]-6-methyl-5-(1-methylethyl)pyrimidin-2-amine], for which the IC50 at PI3Kα fell in the range of 500 to 2500 nM; on mTOR/GbL/Raptor (mTORC1) it was 100 to 500 nM.

Consider `COc1ccc(-c2cc(C)c3c(c2)CN(c2nc(N)nc(C)c2C(C)C)CCO3)cc1OC` [Compound 78, 4-{7-[3,4-bis(methyloxy)phenyl]-9-methyl-2,3-dihydro-1,4-benzoxazepin-4(5H)-yl}-6-methyl-5-(1-methylethyl)pyrimidin-2-amine], for which the IC50 on mTOR/GbL/Raptor (mTORC1) lay in the range of 100 to 500 nM.

As to `C=Cc1c(C)nc(N)nc1N1CCOc2c(C)cc(-c3nnc(N)s3)cc2C1` [Compound 181, 4-[7-(5-amino-1,3,4-thiadiazol-2-yl)-9-methyl-2,3-dihydro-1,4-benzoxazepin-4(5H)-yl]-5-ethenyl-6-methylpyrimidin-2-amine], the IC50 on mTOR/GbL/Raptor (mTORC1) is at most 100 nM.

Consider `COCCc1nc(C)c(C(C)C)c(N2CCOc3c(C)cc(-c4cnc(Cl)c(NS(C)(=O)=O)c4)cc3C2)n1` [Compound 160, N-[2-chloro-5-(9-methyl-4-{6-methyl-5-(1-methylethyl)-2-[2-(methyloxy)ethyl]pyrimidin-4-yl}-2,3,4,5-tetrahydro-1,4-benzoxazepin-7-yl)pyridin-3-yl]methanesulfonamide], for which, on mTOR/GbL/Raptor (mTORC1), the IC50 was at most 100 nM.

Consider `Cc1cc(-c2cnc3sc(N)nc3c2)cc2c1OCCN(c1ncnc(Cl)c1C(C)(C)O)C2` [Compound 131, 2-{4-[7-(2-amino[1,3]thiazolo[5,4-b]pyridin-6-yl)-9-methyl-2,3-dihydro-1,4-benzoxazepin-4(5H)-yl]-6-chloropyrimidin-5-yl}propan-2-ol], for which the IC50 at mTOR/GbL/Raptor (mTORC1) is 100 to 500 nM.

Regarding `Cc1cc(-c2cccnc2)cc2c1OCCN(c1nc(N)nc(C)c1C(C)C)C2` [Compound 76, 4-methyl-5-(1-methylethyl)-6-(9-methyl-7-pyridin-3-yl-2,3-dihydro-1,4-benzoxazepin-4(5H)-yl)pyrimidin-2-amine], the IC50 on mTOR/GbL/Raptor (mTORC1) lay in the range of 100 to 500 nM.

In the case of `Cc1cc(-c2cncnc2)cc2c1OCCN(c1nc(N)nc(C)c1C(C)C)C2` [Compound 71, 4-methyl-5-(1-methylethyl)-6-(9-methyl-7-pyrimidin-5-yl-2,3-dihydro-1,4-benzoxazepin-4(5H)-yl)pyrimidin-2-amine], the IC50 on mTOR/GbL/Raptor (mTORC1) lay within 100 to 500 nM.
